Measured values taken from the NIST ThermoML archive (doi:10.1007/s10765-008-0410-4).

Test: xn = mol fraction of the nth substance listed
Details: Liquid, Vibrating tube method

CCCCn1cc[n+](C)c1.F[B-](F)(F)F [1-butyl-3-methylimidazolium tetrafluoroborate] + CCO
Details | mass density [kg/m3]
298.15 K, 120 kPa, x1 = 0.9152 | 1199.7
298.15 K, 180 kPa, x1 = 0.7452 | 1171.71
298.15 K, 210 kPa, x1 = 0.5384 | 1124.67
298.15 K, 280 kPa, x1 = 1 | 1211.19
298.15 K, 340 kPa, x1 = 0.3147 | 1044.49
298.15 K, 390 kPa, x1 = 0.0701 | 875.91
298.15 K, 4960 kPa, x1 = 0.7452 | 1174.16
298.15 K, 5040 kPa, x1 = 0.5384 | 1127.45
298.15 K, 5140 kPa, x1 = 0.9152 | 1202.06
298.15 K, 5500 kPa, x1 = 0.0701 | 880.04
298.15 K, 5630 kPa, x1 = 0.3147 | 1048.05
298.15 K, 5640 kPa, x1 = 1 | 1213.63
298.15 K, 10030 kPa, x1 = 0.9152 | 1204.31
298.15 K, 10060 kPa, x1 = 0.7452 | 1176.71
298.15 K, 10260 kPa, x1 = 0.5384 | 1130.36
298.15 K, 10620 kPa, x1 = 1 | 1215.85
298.15 K, 10910 kPa, x1 = 0.3147 | 1051.47
298.15 K, 11370 kPa, x1 = 0.0701 | 884.58
298.15 K, 15130 kPa, x1 = 0.0701 | 887.37
298.15 K, 15210 kPa, x1 = 0.7452 | 1179.21
298.15 K, 15280 kPa, x1 = 0.3147 | 1054.2
298.15 K, 15320 kPa, x1 = 0.5384 | 1133.1
298.15 K, 15340 kPa, x1 = 1 | 1217.77
298.15 K, 15620 kPa, x1 = 0.9152 | 1206.82
298.15 K, 20090 kPa, x1 = 0.5384 | 1135.59
298.15 K, 20360 kPa, x1 = 0.7452 | 1181.64
298.15 K, 20480 kPa, x1 = 0.9152 | 1208.95
298.15 K, 20540 kPa, x1 = 0.3147 | 1057.36
298.15 K, 20640 kPa, x1 = 1 | 1220.29
298.15 K, 21070 kPa, x1 = 0.0701 | 891.6
298.15 K, 25270 kPa, x1 = 1 | 1222.18
298.15 K, 25410 kPa, x1 = 0.7452 | 1183.95
298.15 K, 25470 kPa, x1 = 0.3147 | 1060.21
298.15 K, 25570 kPa, x1 = 0.0701 | 894.66
298.15 K, 26070 kPa, x1 = 0.5384 | 1138.61
298.15 K, 26140 kPa, x1 = 0.9152 | 1211.36
298.15 K, 29870 kPa, x1 = 0.9152 | 1212.91
298.15 K, 30050 kPa, x1 = 1 | 1223.93
298.15 K, 30070 kPa, x1 = 0.5384 | 1140.56
298.15 K, 30090 kPa, x1 = 0.7452 | 1186.03
298.15 K, 30620 kPa, x1 = 0.0701 | 897.94
298.15 K, 31120 kPa, x1 = 0.3147 | 1063.34
298.15 K, 35410 kPa, x1 = 0.5384 | 1143.07
298.15 K, 35410 kPa, x1 = 1 | 1226.07
298.15 K, 35480 kPa, x1 = 0.7452 | 1188.36
298.15 K, 35740 kPa, x1 = 0.9152 | 1215.3
298.15 K, 35800 kPa, x1 = 0.3147 | 1065.82
298.15 K, 35860 kPa, x1 = 0.0701 | 901.17
298.15 K, 39340 kPa, x1 = 0.0701 | 903.23
298.15 K, 39610 kPa, x1 = 1 | 1227.81
298.15 K, 39770 kPa, x1 = 0.3147 | 1067.84
298.15 K, 39920 kPa, x1 = 0.7452 | 1190.22
298.15 K, 39980 kPa, x1 = 0.5384 | 1145.14
298.15 K, 39980 kPa, x1 = 0.9152 | 1216.97
323.15 K, 290 kPa, x1 = 0.0701 | 856.52
323.15 K, 340 kPa, x1 = 0.3147 | 1026.83
323.15 K, 420 kPa, x1 = 0.7452 | 1153.47
323.15 K, 510 kPa, x1 = 0.9152 | 1181.35
323.15 K, 730 kPa, x1 = 1 | 1192.89
323.15 K, 850 kPa, x1 = 0.5384 | 1106.94
323.15 K, 4870 kPa, x1 = 0.9152 | 1183.6
323.15 K, 4890 kPa, x1 = 0.5384 | 1109.43
323.15 K, 5010 kPa, x1 = 0.3147 | 1030.15
323.15 K, 5060 kPa, x1 = 0.7452 | 1156.05
323.15 K, 5410 kPa, x1 = 0.0701 | 861.09
323.15 K, 5640 kPa, x1 = 1 | 1195.3
323.15 K, 9860 kPa, x1 = 0.5384 | 1112.4
323.15 K, 10080 kPa, x1 = 0.9152 | 1186.23
323.15 K, 10110 kPa, x1 = 0.3147 | 1033.63
323.15 K, 10610 kPa, x1 = 1 | 1197.71
323.15 K, 10730 kPa, x1 = 0.0701 | 865.61
323.15 K, 10740 kPa, x1 = 0.7452 | 1159.11
323.15 K, 14870 kPa, x1 = 0.5384 | 1115.29
323.15 K, 15080 kPa, x1 = 0.7452 | 1161.39
323.15 K, 15210 kPa, x1 = 0.9152 | 1188.77
323.15 K, 15410 kPa, x1 = 0.3147 | 1037.07
323.15 K, 15430 kPa, x1 = 0.0701 | 869.4
323.15 K, 15440 kPa, x1 = 1 | 1200.01
323.15 K, 20160 kPa, x1 = 0.5384 | 1118.22
323.15 K, 20310 kPa, x1 = 0.7452 | 1164.06
323.15 K, 20330 kPa, x1 = 0.0701 | 873.16
323.15 K, 20460 kPa, x1 = 1 | 1202.37
323.15 K, 20470 kPa, x1 = 0.9152 | 1191.31
323.15 K, 20750 kPa, x1 = 0.3147 | 1040.38
323.15 K, 25010 kPa, x1 = 0.9152 | 1193.45
323.15 K, 25120 kPa, x1 = 0.7452 | 1166.45
323.15 K, 25360 kPa, x1 = 1 | 1204.64
323.15 K, 25380 kPa, x1 = 0.0701 | 876.83
323.15 K, 25840 kPa, x1 = 0.5384 | 1121.23
323.15 K, 26290 kPa, x1 = 0.3147 | 1043.62
323.15 K, 30070 kPa, x1 = 0.9152 | 1195.79
323.15 K, 30080 kPa, x1 = 0.7452 | 1168.84
323.15 K, 30260 kPa, x1 = 0.5384 | 1123.49
323.15 K, 30330 kPa, x1 = 0.0701 | 880.21
323.15 K, 30640 kPa, x1 = 0.3147 | 1046.04
323.15 K, 30740 kPa, x1 = 1 | 1207.09
323.15 K, 34740 kPa, x1 = 0.0701 | 883.06
323.15 K, 34960 kPa, x1 = 0.9152 | 1198
323.15 K, 35070 kPa, x1 = 0.7452 | 1171.16
323.15 K, 35260 kPa, x1 = 0.3147 | 1048.48
323.15 K, 35420 kPa, x1 = 0.5384 | 1126.01
323.15 K, 35650 kPa, x1 = 1 | 1209.29
323.15 K, 39850 kPa, x1 = 1 | 1211.14
323.15 K, 40000 kPa, x1 = 0.9152 | 1200.22
323.15 K, 40010 kPa, x1 = 0.0701 | 886.25
323.15 K, 40010 kPa, x1 = 0.7452 | 1173.4
323.15 K, 40020 kPa, x1 = 0.5384 | 1128.17
323.15 K, 40120 kPa, x1 = 0.3147 | 1050.91
348.15 K, 210 kPa, x1 = 1 | 1174.44
348.15 K, 230 kPa, x1 = 0.3147 | 1007.5
348.15 K, 380 kPa, x1 = 0.7452 | 1134.96
348.15 K, 450 kPa, x1 = 0.5384 | 1088.13
348.15 K, 460 kPa, x1 = 0.9152 | 1163.17
348.15 K, 520 kPa, x1 = 0.0701 | 835.75
348.15 K, 5010 kPa, x1 = 0.5384 | 1091.32
348.15 K, 5040 kPa, x1 = 0.9152 | 1165.81
348.15 K, 5340 kPa, x1 = 0.0701 | 840.67
348.15 K, 5360 kPa, x1 = 0.7452 | 1138.08
348.15 K, 5740 kPa, x1 = 0.3147 | 1011.89
348.15 K, 5960 kPa, x1 = 1 | 1177.75
348.15 K, 10060 kPa, x1 = 0.5384 | 1094.71
348.15 K, 10090 kPa, x1 = 0.7452 | 1140.95
348.15 K, 10480 kPa, x1 = 1 | 1180.3
348.15 K, 11210 kPa, x1 = 0.9152 | 1169.27
348.15 K, 11420 kPa, x1 = 0.3147 | 1016.16
348.15 K, 11710 kPa, x1 = 0.0701 | 846.75
348.15 K, 15080 kPa, x1 = 0.9152 | 1171.38
348.15 K, 15210 kPa, x1 = 0.5384 | 1098.01
348.15 K, 15420 kPa, x1 = 0.7452 | 1144.07
348.15 K, 15430 kPa, x1 = 1 | 1182.72
348.15 K, 15740 kPa, x1 = 0.3147 | 1019.22
348.15 K, 15840 kPa, x1 = 0.0701 | 850.45
348.15 K, 20060 kPa, x1 = 0.5384 | 1100.98
348.15 K, 20080 kPa, x1 = 0.7452 | 1146.71
348.15 K, 20550 kPa, x1 = 0.0701 | 854.43
